# Test results taken from PMC8071537.
# Read-outs that look alike come from different tables or passages of the source.
# Experiments:
# [1] = in vivo, 10 mg/kg; cited from earlier work
# [2] = parameters: method as in PMID 8853931; settings: humans; cited from earlier work
# [3] = parameters: method as in PMID 8853931; settings: lactone moiety converted to carboxylated open-ring form; cited from earlier work
# [4] = system: CYP1A2, CYP2A6, CYP2C8/9, CYP2C19, CYP2D6, CYP2E, CYP3A, or CYP4A; parameters: method as in earlier work; settings: According to GlaxoSmithKline; cited from earlier work
# in vivo = settings: male, Sprague-Dawley, rat, po, 20 mg/kg
# Method: (§1) For PK studies, the carotid artery in healthy SD rats (male, 7‒8 weeks, 220‒298 g) was catheterized one day before drug administration [29, 30, 31, 32]. Four to six rats were grouped for the oral administration of TPT (20 mg/kg) with or without compounds (2 mg/kg) in the modified Taxol® formulation and the same dose of TPT in saline only.
# (§2) The samples were chromatographically separated using a Capcell Pak C18 UG120 column (4.6 mm × 250 mm, 5 μm, Osaka Soda Co. Ltd., Osaka, Japan) with the mobile phase composed of 10 mM phosphate buffer containing 1% triethylamine (TEA) (pH 3.5) and methanol containing 1% TEA (pH 6.5) (56/44, v/v) at a flow rate of 1.0 mL/min for 30 min and detected at an excitation wavelength of 381 nm and an emission wavelength of 527 nm. The injection volume was 50 μL.
# (§3) Pheonix WinNonlin® software (version 8.1, Pharsight Corporation, Mountain View, CA, USA) was used to estimate the PK parameters following oral TPT administration to rats. Non-compartmental analysis was performed using the plasma TPT concentration–time profiles to obtain the following PK parameters: area under the plasma concentration–time curve from zero to infinity (AUCINF), elimination half-life (t1/2), apparent volume of distribution after oral administration (Vd/F), and total oral clearance (Clt/F). The maximum plasma concentration (Cmax) and the time required to reach Cmax (Tmax) were directly measured from the plasma TPT concentration–time curve. The relative BA (RB) of TPT was calculated using the Equation (1):RB (%) = (AUCINF po co-administration)/(AUCINF po control) × 100(1)
# [5] = Pharmacokinetics of oral TPT in rats with or without dual inhibitor candidates or formulation; settings: male, Sprague-Dawley, rat, in vivo, 20 mg/kg
# Method: as §1, §2, §3
# P-gp [6] = target: T1, P-gp (Homo sapiens, UniProt P08183); experiment: TPT accumulation by flow cytometry in P-gp-overexpressing MCF-7/ADR cells; settings: 200 μM TPT, 30 min, vs TPT-only; zosuquidar/Ko143 1 μM
# Method: In this study, the cells were treated with TPT or DNR after incubation with the P-gp and/or BCRP inhibitor candidates or with the excipients for 5 min. When the incubation was complete, the medium containing the substrate and inhibitor candidate or excipient was removed, and the cells were resuspended in cold phosphate buffer saline (PBS) (500 μL). TPT accumulation in the cells was measured using a flow cytometer (NovoCyte 2060R, ACEA Biosciences Inc., San Diego, CA, USA). The mean fluorescence intensity values were calculated, and at least three independent biological duplicates were performed.
# P-gp [7] = target: T1, P-gp; settings: 10 μM DNR, 30 min, vs DNR-only control; zosuquidar 1 μM
# Method: In this study, the cells were treated with TPT or DNR after incubation with the P-gp and/or BCRP inhibitor candidates or with the excipients for 5 min. When the incubation was complete, the medium containing the substrate and inhibitor candidate or excipient was removed, and the cells were resuspended in cold phosphate buffer saline (PBS) (500 μL). […] The mean fluorescence intensity values were calculated, and at least three independent biological duplicates were performed.
# Substrate Drug Accumulation Study by Flow Cytometry
# N.Y.; Sivaraman, A.; Naik, R.; Jin, μL) with 10 μM DNR in the presence and/or absence of 1 μM zosuquidar for 30 min or
# TPT accumulation in cells resuspended in cold PBS
# [8] = Pharmacokinetics of oral TPT in rats with zosuquidar and/or Ko143 (Table S2); settings: TPT 20 mg/kg PO + Ko143 10 mg/kg
# Method: In the modified Taxol® formulation, TPT was prepared at a concentration of 2 mg/mL
# TPT was also dissolved in isotonic saline at a concentration of
# Tween® 80 was dissolved in
# Oral Administration and Plasma Sampling
# claims in published maps and institu-for the oral administration of TPT (20 mg/kg) with or without zosuquidar (25 mg/kg),
# formulation. After drug administration, blood sampling was performed at 0, 0.05, 0.12,
# The SD rats (male, 7‒8-weeks old, 235‒265 g) were divided into four groups (n = 6‒
# Blood sampling was done at 0, 0.033, 0.083,
# Pheonix WinNonlin ® software (version 8.0–8.1, Pharsight Corporation, Mountain
# View, CA, USA) was used to estimate the PK parameters following oral TP T administra-
# tion in rats. Non-compartmental analysis was performed using the plasma TPT concen-
# tration–time profiles to obtain the following PK parameters: initial plasma concentration
# (C0), area under the plasma concentration–time curve from zero to infinity (AUCINF), elim-
# ination half-life (t1/2), apparent volume of distribution (Vd) after oral administration (Vd/F),
# total clearance (Clt), and total oral clearance (Clt/F). The maximum plasma concentration
# (Cmax) and the time required to reach Cmax (Tmax) were directly determined from the plasma
# TPT concentration–time curve. The absolute BA (AB) and the relative BA (RB) of TPT were
# T1 sequence (P08183 whole entry): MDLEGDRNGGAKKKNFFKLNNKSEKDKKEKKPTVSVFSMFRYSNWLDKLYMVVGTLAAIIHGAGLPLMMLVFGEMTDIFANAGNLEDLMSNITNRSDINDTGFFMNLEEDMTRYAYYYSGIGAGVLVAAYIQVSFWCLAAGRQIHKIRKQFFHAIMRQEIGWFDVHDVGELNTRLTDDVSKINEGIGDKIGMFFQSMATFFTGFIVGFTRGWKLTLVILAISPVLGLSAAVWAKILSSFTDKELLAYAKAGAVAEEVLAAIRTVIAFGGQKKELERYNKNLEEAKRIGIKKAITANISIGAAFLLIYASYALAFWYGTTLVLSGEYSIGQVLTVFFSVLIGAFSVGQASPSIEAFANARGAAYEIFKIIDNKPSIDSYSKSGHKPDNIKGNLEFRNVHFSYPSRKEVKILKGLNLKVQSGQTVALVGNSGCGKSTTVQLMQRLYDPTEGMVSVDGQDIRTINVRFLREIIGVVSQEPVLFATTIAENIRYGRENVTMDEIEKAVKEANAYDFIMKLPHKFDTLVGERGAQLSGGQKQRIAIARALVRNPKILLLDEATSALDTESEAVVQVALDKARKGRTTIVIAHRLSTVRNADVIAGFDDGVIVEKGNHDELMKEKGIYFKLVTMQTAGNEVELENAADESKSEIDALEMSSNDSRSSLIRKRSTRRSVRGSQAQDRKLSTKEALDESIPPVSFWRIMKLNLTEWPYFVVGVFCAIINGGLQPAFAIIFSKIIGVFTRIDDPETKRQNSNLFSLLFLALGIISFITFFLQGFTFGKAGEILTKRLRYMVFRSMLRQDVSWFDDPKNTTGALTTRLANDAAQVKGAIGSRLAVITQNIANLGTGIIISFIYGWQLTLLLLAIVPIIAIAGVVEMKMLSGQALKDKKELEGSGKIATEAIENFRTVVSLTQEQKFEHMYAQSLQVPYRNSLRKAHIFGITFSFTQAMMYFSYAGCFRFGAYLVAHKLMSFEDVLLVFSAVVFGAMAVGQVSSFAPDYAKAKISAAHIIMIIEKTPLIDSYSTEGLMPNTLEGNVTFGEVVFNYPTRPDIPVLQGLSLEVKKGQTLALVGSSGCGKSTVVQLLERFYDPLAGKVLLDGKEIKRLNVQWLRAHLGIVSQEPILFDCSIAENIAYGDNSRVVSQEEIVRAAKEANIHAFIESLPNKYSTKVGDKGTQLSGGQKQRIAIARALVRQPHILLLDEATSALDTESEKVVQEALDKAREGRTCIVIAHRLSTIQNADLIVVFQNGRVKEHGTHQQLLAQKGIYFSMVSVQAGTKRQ
compound,measurement,setting,value
silymarin,Vd/F and Clt/F of PTX,[1],decreased
"CC[C@@]1(O)C(=O)OCc2c1cc1n(c2=O)Cc2cc3c(CN(C)C)c(O)ccc3nc2-1 [TPT, Topotecan]",half-life,[2],3 h
same,hepatic metabolism: amount of N-desmethyl TPT (of the total amount),[2],< 7%
same,oral BA of active TPT,[2],approximately 35%
same,renal excretion (of the total administered dose),[2],approximately 40%
same,stability under physiological pH,[3],unstable
same,"in vitro activity of CYP1A2, CYP2A6, CYP2C8/9, CYP2C19, CYP2D6, CYP2E, CYP3A, or CYP4A",[4],does not alter
same,AUC(0-inf),in vivo,2360 ± 543 ng·h/mL
same,Cmax,in vivo,727 ± 265 ng/mL
same,Tmax,in vivo,0.5 to 1 h
same,Vd/F,[5],42.1 ± 14.1 L
same,half-life,[5],3.39 ± 1.09 h
"O[C@@H](COc1cccc2ncccc12)CN1CCN([C@@H]2c3ccccc3[C@@H]3[C@H](c4ccccc42)C3(F)F)CC1 [zosuquidar, Zosuquidar]",TPT accumulation in ADR cells,P-gp [6],no significant difference
same,increase in DNR accumulation in P-gp-overexpressing cells,P-gp [7],approximately three-fold increase
COc1ccc2c3c([nH]c2c1)[C@H](CC(C)C)N1C(=O)[C@H](CCC(=O)OC(C)(C)C)NC(=O)[C@@H]1C3 [Ko143],enhanced absorption of TPT,[8],>two-fold
